Results reported in ChEMBL document CHEMBL2440076, “New triarylpyrazoles as broad-spectrum anticancer agents: design, synthesis, and biological evaluation” (Eur J Med Chem, 2013).

Key:
Type in all cases: functional
786-0 [1] = assay: Growth inhibition of human 786-0 cells assessed as cell growth at 5X10'-5 M after 48 hrs by sulforhodamine B assay; details: 786-0, 48 h, read-out: Activity
NCI-H23 = assay: Growth inhibition of human NCI-H23 cells assessed as cell growth at 5X10'-5 M after 48 hrs by sulforhodamine B assay; details: NCI-H23, 48 h, read-out: Activity
SR [2] = assay: Growth inhibition of human SR cells assessed as cell growth at 5X10'-6 M after 48 hrs by sulforhodamine B assay; details: read-out: Activity
OVCAR-4 [3] = assay: Growth inhibition of human OVCAR4 cells assessed as cell growth at 5X10'-8 M after 48 hrs by sulforhodamine B assay; details: OVCAR-4, 48 h, read-out: Activity
SF-539 [4] = assay: Growth inhibition of human SF539 cells assessed as cell growth at 5X10'-5 M after 48 hrs by sulforhodamine B assay; details: SF-539, 48 h, read-out: Activity
HOP-92 [5] = assay: Growth inhibition of human HOP92 cells assessed as cell growth at 5X10'-8 M after 48 hrs by sulforhodamine B assay; details: HOP-92, 48 h, read-out: Activity
M14 = assay: Growth inhibition of human M14 cells assessed as cell growth at 5X10'-8 M after 48 hrs by sulforhodamine B assay; details: M14, 48 h, read-out: Activity
RXF 393 [6] = assay: Growth inhibition of human RXF393 cells assessed as cell growth at 5X10'-7 M after 48 hrs by sulforhodamine B assay; details: RXF 393, 48 h, read-out: Activity
A498 [7] = assay: Growth inhibition of human A498 cells assessed as cell growth at 5X10'-9 M after 48 hrs by sulforhodamine B assay; details: A498, 48 h, read-out: Activity
RXF 393 [8] = assay: Growth inhibition of human RXF393 cells assessed as cell growth at 5X10'-5 M after 48 hrs by sulforhodamine B assay; details: RXF 393, 48 h, read-out: Activity
A498 [9] = assay: Growth inhibition of human A498 cells assessed as cell growth at 5X10'-8 M after 48 hrs by sulforhodamine B assay; details: A498, 48 h, read-out: Activity
ACHN = assay: Growth inhibition of human ACHN cells assessed as cell growth at 5X10'-9 M after 48 hrs by sulforhodamine B assay; details: read-out: Activity
MDA-MB-468 [10] = assay: Growth inhibition of human MDA-MB-468 cells assessed as cell growth at 5X10'-7 M after 48 hrs by sulforhodamine B assay; details: MDA-MB-468, 48 h, read-out: Activity
SW-620 [11] = assay: Growth inhibition of human SW620 cells assessed as cell growth at 5X10'-9 M after 48 hrs by sulforhodamine B assay; details: SW-620, 48 h, read-out: Activity
SR [12] = assay: Growth inhibition of human SR cells assessed as cell growth at 5X10'-5 M after 48 hrs by sulforhodamine B assay; details: read-out: Activity
HCT-116 = assay: Growth inhibition of human HCT116 cells assessed as cell growth at 5X10'-5 M after 48 hrs by sulforhodamine B assay; details: HCT-116, 48 h, read-out: Activity
SF-539 [13] = assay: Growth inhibition of human SF539 cells assessed as cell growth at 5X10'-6 M after 48 hrs by sulforhodamine B assay; details: SF-539, 48 h, read-out: Activity
SK-MEL-2 [14] = assay: Growth inhibition of human SK-MEL-2 cells assessed as cell growth at 5X10'-7 M after 48 hrs by sulforhodamine B assay; details: SK-MEL-2, 48 h, read-out: Activity
OVCAR-4 [15] = assay: Growth inhibition of human OVCAR4 cells assessed as cell growth at 5X10'-5 M after 48 hrs by sulforhodamine B assay; details: OVCAR-4, 48 h, read-out: Activity
HOP-62 = assay: Growth inhibition of human HOP62 cells assessed as cell growth at 5X10'-7 M after 48 hrs by sulforhodamine B assay; details: HOP-62, 48 h, read-out: Activity
RPMI-8226 = assay: Growth inhibition of human RPMI8226 cells assessed as cell growth at 5X10'-9 M after 48 hrs by sulforhodamine B assay; details: RPMI-8226, 48 h, read-out: Activity
HOP-92 [16] = assay: Growth inhibition of human HOP92 cells assessed as cell growth at 5X10'-6 M after 48 hrs by sulforhodamine B assay; details: HOP-92, 48 h, read-out: Activity
MCF7 = assay: Growth inhibition of human MCF7 cells assessed as cell growth at 5X10'-5 M after 48 hrs by sulforhodamine B assay; details: MCF7, 48 h, read-out: Activity
KM12 [17] = assay: Growth inhibition of human KM12 cells assessed as cell growth at 5X10'-5 M after 48 hrs by sulforhodamine B assay; details: KM12, 48 h, read-out: Activity
NCI-H460 = assay: Growth inhibition of human NCI-H460 cells assessed as cell growth at 5X10'-9 M after 48 hrs by sulforhodamine B assay; details: NCI-H460, 48 h, read-out: Activity
SK-MEL-2 [18] = assay: Growth inhibition of human SK-MEL-2 cells assessed as cell growth at 5X10'-5 M after 48 hrs by sulforhodamine B assay; details: SK-MEL-2, 48 h, read-out: Activity
SNB-75 = assay: Growth inhibition of human SNB75 cells assessed as cell growth at 5X10'-8 M after 48 hrs by sulforhodamine B assay; details: SNB-75, 48 h, read-out: Activity
OVCAR-3 = assay: Growth inhibition of human OVCAR3 cells assessed as cell growth at 5X10'-5 M after 48 hrs by sulforhodamine B assay; details: OVCAR-3, 48 h, read-out: Activity
IGROV-1 = assay: Growth inhibition of human IGROV1 cells assessed as cell growth at 5X10'-8 M after 48 hrs by sulforhodamine B assay; details: IGROV-1, 48 h, read-out: Activity
786-0 [19] = assay: Growth inhibition of human 786-0 cells assessed as cell growth at 5X10'-8 M after 48 hrs by sulforhodamine B assay; details: 786-0, 48 h, read-out: Activity
KM12 [20] = assay: Growth inhibition of human KM12 cells assessed as cell growth at 5X10'-8 M after 48 hrs by sulforhodamine B assay; details: KM12, 48 h, read-out: Activity
SK-OV-3 = assay: Growth inhibition of human SKOV3 cells assessed as cell growth at 5X10'-9 M after 48 hrs by sulforhodamine B assay; details: SK-OV-3, 48 h, read-out: Activity
MDA-MB-468 [21] = assay: Growth inhibition of human MDA-MB-468 cells assessed as cell growth at 5X10'-5 M after 48 hrs by sulforhodamine B assay; details: MDA-MB-468, 48 h, read-out: Activity
OVCAR-4 [22] = assay: Growth inhibition of human OVCAR4 cells assessed as cell growth at 5X10'-7 M after 48 hrs by sulforhodamine B assay; details: OVCAR-4, 48 h, read-out: Activity
MDA-MB-435 = assay: Growth inhibition of human MDA-MB-435 cells assessed as cell growth at 5X10'-6 M after 48 hrs by sulforhodamine B assay; details: MDA-MB-435, 48 h, read-out: Activity
SW-620 [23] = assay: Growth inhibition of human SW620 cells assessed as cell growth at 5X10'-8 M after 48 hrs by sulforhodamine B assay; details: SW-620, 48 h, read-out: Activity
SR [24] = assay: Growth inhibition of human SR cells assessed as cell growth at 5X10'-9 M after 48 hrs by sulforhodamine B assay; details: read-out: Activity
COLO 205 = assay: Growth inhibition of human COLO205 cells assessed as cell growth at 5X10'-8 M after 48 hrs by sulforhodamine B assay; details: COLO 205, 48 h, read-out: Activity

SMILES	growth at 50 µM (786-0 [1]) [%]	growth at 50 µM (NCI-H23) [%]	growth at 5 µM (SR [2]) [%]	growth at 0.05 µM (OVCAR-4 [3]) [%]	growth at 50 µM (SF-539 [4]) [%]	growth at 0.05 µM (HOP-92 [5]) [%]	growth at 0.05 µM (M14) [%]	growth at 0.5 µM (RXF 393 [6]) [%]	growth at 0.005 µM (A498 [7]) [%]	growth at 50 µM (RXF 393 [8]) [%]	growth at 0.05 µM (A498 [9]) [%]	growth at 0.005 µM (ACHN) [%]	growth at 0.5 µM (MDA-MB-468 [10]) [%]	growth at 0.005 µM (SW-620 [11]) [%]	growth at 50 µM (SR [12]) [%]	growth at 50 µM (HCT-116) [%]	growth at 5 µM (SF-539 [13]) [%]	growth at 0.5 µM (SK-MEL-2 [14]) [%]	growth at 50 µM (OVCAR-4 [15]) [%]	growth at 0.5 µM (HOP-62) [%]	also measured
O=C(Nc1cccc(-n2cc(-c3ccncc3)c(-c3ccc(Cl)c(O)c3)n2)c1)c1ccc(N2CCOCC2)c(C(F)(F)F)c1	-53	-13	18	100	-18	78	94	57	92	-37	83	102	92	102	8	10	21	102	46	117	growth at 0.005 µM (RPMI-8226): 98%; growth at 5 µM (HOP-92 [16]): -7%; growth at 50 µM (MCF7): 12%; growth at 50 µM (KM12 [17]): 1%; growth at 0.005 µM (NCI-H460): 103%; growth at 50 µM (SK-MEL-2 [18]): -36%; growth at 0.05 µM (SNB-75): 88%; growth at 50 µM (OVCAR-3): 11%; growth at 0.05 µM (IGROV-1): 95%; growth at 0.05 µM (786-0 [19]): 95%; growth at 0.05 µM (KM12 [20]): 93%; growth at 0.005 µM (SK-OV-3): 95%; growth at 50 µM (MDA-MB-468 [21]): -24%; growth at 0.5 µM (OVCAR-4 [22]): 112%; growth at 5 µM (MDA-MB-435): 28%; growth at 0.05 µM (SW-620 [23]): 104%; growth at 0.005 µM (SR [24]): 94%; growth at 0.05 µM (COLO 205): 102%
O=C(Nc1cccc(-n2cc(-c3ccncc3)c(-c3ccc(Cl)c(O)c3)n2)c1)Nc1cc(C(F)(F)F)cc(C(F)(F)F)c1	-71	-75	-11	95	-96	75	104	82	79	-79	86	103	37	99	-8	-96	-91	101	-74	96	growth at 0.005 µM (RPMI-8226): 97%; growth at 5 µM (HOP-92 [16]): -38%; growth at 50 µM (MCF7): -64%; growth at 50 µM (KM12 [17]): -85%; growth at 0.005 µM (NCI-H460): 101%; growth at 50 µM (SK-MEL-2 [18]): -77%; growth at 0.05 µM (SNB-75): 86%; growth at 50 µM (OVCAR-3): -94%; growth at 0.05 µM (IGROV-1): 102%; growth at 0.05 µM (786-0 [19]): 99%; growth at 0.05 µM (KM12 [20]): 103%; growth at 0.005 µM (SK-OV-3): 103%; growth at 50 µM (MDA-MB-468 [21]): -55%; growth at 0.5 µM (OVCAR-4 [22]): 65%; growth at 5 µM (MDA-MB-435): -31%; growth at 0.05 µM (SW-620 [23]): 101%; growth at 0.005 µM (SR [24]): 102%; growth at 0.05 µM (COLO 205): 103%
